Experimental data taken from paper PMC12703733, “Probing Guanidino Pendant or Bridged Groups in Cyclic Antimicrobial Peptides Derived from Temporin L: A Strategy to Improve Efficacy against Gram-Negative Bacteria” (Journal of Medicinal Chemistry, 2025).
Converted amounts (≈) assume the structure as drawn. Read-outs that look alike come from different tables or passages of the source. Bridge positions count the residues as written; N and C are the ends. Square brackets hold non-standard residues; d marks the D form. Peptide text beside a SMILES is read from it. Pro(cis-4-guanidino) = NC(N)=N[C@@H]1CN[C@H](C(=O)O)C1

What was measured:
circular dichroism = conditions: water; pH ns; 25 °C; 150 uM
A. baumannii ATCC 19606 = experiment: microbe, parasite or virus in culture; type: cell-based; conditions: ATCC 19606
Protocol: (§1) Bacterial strains used in this study were the Gram-positive S. aureus ATCC 25923, S. epidermidis ATCC 12228, B. megaterium BM11, S. [NT] 27591, E. faecalis ATCC 29212 and the Gram-negative E. coli ATCC 25922, P. aeruginosa ATCC 27853, A. baumannii ATCC 19606, E. coli D21 and P. aeruginosa PAO1. […] Bacterial cells in the mid log phase were diluted in Muller Hinton (MH) at a concentration of 2 × 10^6 cell/mL. […] Ciprofloxacin was used as antibiotic control. The plate was then incubated at 37 °C. MICs were obtained from three identical readings of four independent experiments.

B. megaterium BM11 = experiment: microbe, parasite or virus in culture; type: cell-based; conditions: BM11
Protocol: as §1

E. coli ATCC 25922 = experiment: microbe, parasite or virus in culture; type: cell-based; conditions: ATCC 25922
Protocol: as §1

E. coli D21 = experiment: microbe, parasite or virus in culture; type: cell-based; conditions: D21
Protocol: as §1

E. faecalis ATCC 29212 = experiment: microbe, parasite or virus in culture; type: cell-based; conditions: ATCC 29212
Protocol: as §1

P. aeruginosa ATCC 27853 = experiment: microbe, parasite or virus in culture; type: cell-based; conditions: ATCC 27853
Protocol: as §1

S. agalactiae ATCC 27591 = experiment: microbe, parasite or virus in culture; type: cell-based; conditions: ATCC 27591
Protocol: as §1

S. aureus ATCC 25923 = experiment: microbe, parasite or virus in culture; type: cell-based; conditions: ATCC 25923
Protocol: as §1

[1] = system: S. epidermidis ATCC 12228; experiment: microbe, parasite or virus in culture; type: cell-based; conditions: ATCC 12228
Protocol: as §1

[2] = type: cell-based, human; conditions: human; for viability at 2 h, 3.12 µM / viability at 2 h, 6.25 µM / viability at 2 h, 12.5 µM / viability at 2 h, 25 µM / viability at 2 h, 50 µM / viability at 2 h, 100 µM / viability at 24 h, 3.12 µM / viability at 24 h, 6.25 µM / viability at 24 h, 12.5 µM / viability at 24 h, 25 µM / viability at 24 h, 50 µM / viability at 24 h, 100 µM: Cell viability (%)
Protocol: (§2) For the evaluation of peptides’ cytotoxicity, the human immortalized keratinocytes (HaCaT cells), purchased from AddexBio (San Diego, CA, USA), and BEAS-2B were used. HaCaT cells were cultured in Dulbecco’s modified Eagle’s medium supplemented with 4 mM glutamine (DMEM), 10% heat-inactivated fetal bovine serum (FBS), and 0.1 mg/mL of penicillin and streptomycin, at 37 °C and 5% CO2. BEAS-2B cells were cultured in RPMI, supplemented with 2 mM glutamine (DMEM), 10% heat-inactivated fetal bovine serum (FBS), 1 mM sodium pyruvate, and 0.1 mg/mL of penicillin and streptomycin, at 37 °C and 5% CO2. Cytotoxicity was tested in vitro using a colorimetric assay that relies on the intracellular reduction of the yellow 3-(4,5-dimethylthiazol-2-yl)-2,5-diphenyltetrazolium bromide salt (MTT) by mitochondrial dehydrogenases of metabolically active cells in formazan crystals (purple). About 4 × 10^4 HaCaT and BEAS-2B cells, suspended in DMEM supplemented with 2% FBS, were plated in triplicate wells of a 96-well microtiter plate. The plate was incubated overnight at 37 °C and 5% CO2. Then, the cells were treated with different concentrations of the peptide (from 100 to 3.12 μM) in a fresh serum-free medium for 2 h and for a longer time (24 h). Following peptide treatment, the medium was removed, and MTT (0.5 mg/mL) solution in Hank’s buffer (136 mM NaCl, 4.2 mM Na2HPO4, 4.4 mM KH2PO4, 5.4 mM KCl, 4.1 mM NaHCO3, pH 7.2, supplemented with 20 mM D-glucose) was added to each well of the plate, that was then incubated for 4 h at 37 °C and 5% CO2. The purple formazan crystals were dissolved using acidified 2-propanol and a microplate reader (Infinite M200; Tecan, Salzburg, Austria) was used to measure the absorbance of each well at 570 nm. The percentage of cell viability was calculated compared to the control, which consisted of cells without any peptide treatment (corresponding to 100% viability) and all data represent the mean of three independent experiments ± SEM.

[3] = type: cell-based; conditions: for viability at 12.5 µM: cell viability
Protocol: as §2

in vitro = in vitro ADME
Protocol: Peptide stability was evaluated by modifying previously described procedures. , The assays were performed in human serum and in the presence of proteolytic enzymes such as trypsin and chymotrypsin. For human serum stability, 2 mM peptide stock solutions were prepared in water and mixed with human serum (from male AB plasma, USA origin, sterile-filtered, Merck/Sigma-Aldrich, USA) to obtain a final concentration of 200 μM [human plasma/stock solution (9:1, v/v)]. The mixtures were incubated at 37 ± 1 °C, and 50 μL aliquots were taken at predetermined time intervals (0, 1, 2, 4, 8, and 24 h). Protease activity was quenched by adding 100 μL of acetonitrile (MeCN). The resulting cloudy suspensions were cooled to 4 °C for 30 min and centrifugated at 12,000 rpm for 10 min to remove the serum proteins. Then, the supernatants were analyzed by analytical HPLC (Shimadzu Nexera Liquid Chromatograph LC-30AD) which was equipped with a Phenomenex Kinetex reversed-phase column (C18, 5 μm, 100 Å, 150 mm × 4.6 mm) with a flow rate of 1 mL/min using a gradient of MeCN (0.1% TFA) in water (0.1% TFA), from 10 to 70% over 15 min, and UV detection at 220 nm. For enzyme stability, each peptide peptide (200 μM) was incubated with trypsin (0.5 μM) in PBS 1× (pH 7.2) or with chymotrypsin (0.005 μM) in Tris–HCl (100 mM, pH 7.8). Samples (50 μL) were collected at 0, 1, 2, 4, and 24 h, quenched with 0.5% TFA in water, and analyzed by HPLC under chromatographic conditions as described above. All experiments were conducted in triplicate. The percentage of intact peptides at each time point was determined by integrating the corresponding HPLC peak areas.

P. aeruginosa PAO1 = experiment: microbe, parasite or virus in culture; type: cell-based; conditions: PAO1
Protocol: as §1

[4] = system: human keratinocytes (HaCaT cells); type: cell-based
Protocol: as §2

[5] = isolated enzyme chymotrypsin, pH 7.8
[6] = isolated enzyme trypsin, pH 7.2

| Compound | helicity (circular dichroism) [%] | MIC (A. baumannii ATCC 19606) [µM] | MIC (B. megaterium BM11) [µM] | MIC (E. coli ATCC 25922) [µM] | MIC (E. coli D21) [µM] | MIC (E. faecalis ATCC 29212) [µM] | MIC (P. aeruginosa ATCC 27853) [µM] | MIC (S. agalactiae ATCC 27591) [µM] | MIC (S. aureus ATCC 25923) [µM] | MIC [1] [µM] | CC50 at 24 h [2] [µM] | viability at 2 h, 6.25 µM [2] [%] | viability at 2 h, 12.5 µM [2] [%] | viability at 2 h, 25 µM [2] [%] | viability at 2 h, 50 µM [2] [%] | viability at 2 h, 100 µM [2] [%] | viability at 24 h, 3.12 µM [2] [%] | viability at 24 h, 6.25 µM [2] [%] | viability at 24 h, 12.5 µM [2] [%] | viability at 24 h, 25 µM [2] [%] | further results |
| --- | --- | --- | --- | --- | --- | --- | --- | --- | --- | --- | --- | --- | --- | --- | --- | --- | --- | --- | --- | --- | --- |
| CC[C@H](C)[C@H](NC(=O)[C@H](CCCNC(=N)N)NC(=O)[C@H]1CCC(=O)NCCCC[C@H](NC(=O)[C@H](Cc2ccccc2)NC(=O)[C@H](Cc2c[nH]c3ccccc23)NC(=O)[C@@H]2C[C@H](NC(=N)N)CN2C(=O)[C@@H](NC(=O)[C@@H](N)Cc2ccccc2)C(C)C)C(=O)N[C@@H](CCCCN)C(=O)N[C@@H](Cc2ccccc2)C(=O)N[C@H](CC(C)C)C(=O)N1)C(=O)N[C@@H](CC(C)C)C(N)=O [Peptide 7, FV(4-guanidino)PWF[KKFle]RIL] (H-FV[Pro(cis-4-guanidino)]WFKKF[dL][dE]RIL-NH2; lactam 6-10) | 1 | 3.12 (≈ 5.49 µg/mL) | 0.78 (≈ 1.37 µg/mL) | 3.12 (≈ 5.49 µg/mL) | 3.12 (≈ 5.49 µg/mL) | 12.5 (≈ 22 µg/mL) | 12.5 (≈ 22 µg/mL) | 1.56 (≈ 2.75 µg/mL) | 6.25 (≈ 11 µg/mL) | 3.12 (≈ 5.49 µg/mL) | 37 | 100 | 102 | 72 | 16 | 8 | 99 ± 5 | 98 ± 1 | 95 ± 4 | 85 ± 2 | viability at 2 h, 3.12 µM [2]: 101%; viability at 24 h, 50 µM [2]: 18 ± 3%; viability at 24 h, 100 µM [2]: 2 ± 1%; viability at 2 h, 3.12 µM ([3]; Cell viability (%)): 105%; viability at 2 h, 6.25 µM ([3]; Cell viability (%)): 117%; viability at 2 h, 12.5 µM ([3]; Cell viability (%)): 80%; viability at 2 h, 25 µM ([3]; Cell viability (%)): 28%; viability at 2 h, 50 µM ([3]; Cell viability (%)): 6%; viability at 24 h, 3.12 µM ([3]; Cell viability (%)): 111%; viability at 24 h, 6.25 µM ([3]; Cell viability (%)): 104%; viability at 24 h, 12.5 µM ([3]; Cell viability (%)): 90%; viability at 24 h, 25 µM ([3]; Cell viability (%)): 34%; viability at 24 h, 50 µM ([3]; Cell viability (%)): 9%; viability at 24 h, 100 µM ([3]; Cell viability (%)): 4%; viability at 12.5 µM [3]: ~85%; remaining at 4 h, 200 μM (in vitro; [5]): ~20%; remaining at 4 h, 200 μM (in vitro; [6]): 10% |
| CC[C@H](C)[C@H](NC(=O)[C@H](CCCNC(=N)N)NC(=O)[C@@H]1CCCCNC(=N)NCCCC[C@H](NC(=O)[C@H](Cc2ccccc2)NC(=O)[C@H](Cc2c[nH]c3ccccc23)NC(=O)[C@@H]2CCCN2C(=O)[C@@H](NC(=O)[C@@H](N)Cc2ccccc2)C(C)C)C(=O)N[C@@H](CCCCN)C(=O)N[C@@H](Cc2ccccc2)C(=O)N[C@H](CC(C)C)C(=O)N1)C(=O)N[C@@H](CC(C)C)C(N)=O [Peptide 11, FVPWF{KKFlK}RIL] | 76 | 1.56 (≈ 2.72 µg/mL) | 1.56 (≈ 2.72 µg/mL) | 6.25 (≈ 10.9 µg/mL) | 12.5 (≈ 21.8 µg/mL) | 12.5 (≈ 21.8 µg/mL) | 50 (≈ 87.3 µg/mL) | 3.12 (≈ 5.45 µg/mL) | 3.12 (≈ 5.45 µg/mL) | 1.56 (≈ 2.72 µg/mL) | 21.3 | 98 | 86 | 57 | 35 | 10 | 98 ± 4 | 97 ± 3 | 87 ± 3 | 35 ± 3 | MIC (P. aeruginosa PAO1): 50 µM (≈ 87.3 µg/mL); viability at 24 h, 50 µM [2]: 5 ± 3%; viability at 24 h, 100 µM [2]: 2 ± 1%; cytotoxicity (in words) [4]: Low cytotoxicity (up to 25 μM) |
| CC[C@H](C)[C@H](NC(=O)[C@H](CCCNC(=N)N)NC(=O)[C@H]1CCCCNC(=N)NCCCC[C@H](NC(=O)[C@H](Cc2ccccc2)NC(=O)[C@H](Cc2c[nH]c3ccccc23)NC(=O)[C@@H]2CCCN2C(=O)[C@@H](NC(=O)[C@@H](N)Cc2ccccc2)C(C)C)C(=O)N[C@@H](CCCCN)C(=O)N[C@@H](Cc2ccccc2)C(=O)N[C@H](CC(C)C)C(=O)N1)C(=O)N[C@@H](CC(C)C)C(N)=O [Peptide 12, FVPWF{KKFlk}RIL] | 63 | 1.56 (≈ 2.72 µg/mL) | 0.39 (≈ 0.681 µg/mL) | 6.25 (≈ 10.9 µg/mL) | 3.12 (≈ 5.45 µg/mL) | 6.25 (≈ 10.9 µg/mL) | 12.5 (≈ 21.8 µg/mL) | 1.56 (≈ 2.72 µg/mL) | 6.25 (≈ 10.9 µg/mL) | 1.56 (≈ 2.72 µg/mL) | 19.6 | 103 | 88 | 47 | 11 | 10 | 100 ± 1 | 101 ± 2 | 90 ± 4 | 28 ± 4 | viability at 2 h, 3.12 µM [2]: 101%; viability at 24 h, 50 µM [2]: 2 ± 1%; viability at 24 h, 100 µM [2]: 3 ± 1%; viability at 2 h, 3.12 µM ([3]; Cell viability (%)): 106%; viability at 2 h, 6.25 µM ([3]; Cell viability (%)): 104%; viability at 2 h, 12.5 µM ([3]; Cell viability (%)): 56%; viability at 2 h, 25 µM ([3]; Cell viability (%)): 14%; viability at 2 h, 50 µM ([3]; Cell viability (%)): 4%; viability at 2 h, 100 µM ([3]; Cell viability (%)): 4%; viability at 24 h, 3.12 µM ([3]; Cell viability (%)): 93%; viability at 24 h, 6.25 µM ([3]; Cell viability (%)): 86%; viability at 24 h, 12.5 µM ([3]; Cell viability (%)): 66%; viability at 24 h, 25 µM ([3]; Cell viability (%)): 14%; viability at 24 h, 100 µM ([3]; Cell viability (%)): 0%; viability at 12.5 µM [3]: ~60%; remaining at 4 h, 200 μM (in vitro; [5]): ~40%; remaining at 4 h, 200 μM (in vitro; [6]): ~80%; remaining at 24 h, 200 μM (in vitro; [6]): ~35% |
